According to patent publication US20260131016A1, “NOVEL AURISTATIN ANALOGS AND IMMUNOCONJUGATES THEREOF” (ADCENTRX THERAPEUTICS INC., priority 2021, published 2026):

Columns and labels:
[1] = test system: HCC1954 breast ductal carcinoma; experiment: Cell viability (Cell Titer Glo 2.0) in HCC1954, 120 hours; type: cell-based; details: for IC50: Homo sapiens, HCC1954, 120 h, read-out: IC50 (nM), in vitro potency in HCC1954
Experimental: (§1) HCC1954 breast ductal carcinoma and T47D cells (ATCC, Manassas, VA, USA) were seeded into 384-well white-walled culture plates and allowed to adhere for 2-4 hours. Cells were then treated at least in duplicate by addition of 5-fold serially diluted test articles prepared at 2× final concentration and incubated at 37° C. for 120 hours. Cell viability following treatment was determined by Cell Titer Glo 2.0 Assay (Promega, Madison, WI, USA) and normalized to non-treated controls. Dose-response relationships were analyzed using GraphPad Prism (La Jolla, CA, USA), and IC50 values were derived from non-linear regression analyses using a 4-parameter logistic equation.

[2] = test system: T47D cells; experiment: Cell viability (Cell Titer Glo 2.0) in T47D cells, 120 hours; type: cell-based
Experimental: as §1

[3] = N-methylated analogs 1,2-/1,3-/1,4-NH2, relative to the 1,3-NH2 analog (=1)
[4] = NCH3-amide compared to its NH-amide analog (=1)

Structure (SMILES): CC[C@H](C)[C@@H]([C@@H](CC(=O)N1CCC[C@H]1[C@H](OC)[C@@H](C)C(=O)N(C)CCc1ccccc1N)OC)N(C)C(=O)[C@@H](NC(=O)[C@H](C)N(C)C)C(C)C [Compound 16, (S)-N-((3R,4S,5S)-1-((S)-2-((1R,2R)-3-((2-aminophenethyl)(methyl)amino)-1-methoxy-2-methyl-3-oxopropyl)pyrrolidin-1-yl)-3-methoxy-5-methyl-1-oxoheptan-4-yl)-2-((S)-2-(dimethylamino)propanamido)-N,3-dimethylbutanamide]
- potency compared to the 1,4-NH2 configuration of the P5 moiety in 19 and 26 ([1]; HCC1954 and T47D assays): more potent
- IC50 [1]: < 5 nM
- IC50 (fold difference) HCC1954 [1, 3]: 1.8 fold difference
- IC50 (fold difference) T47D [2, 3]: 3.4 fold difference

Structure (SMILES): CC[C@H](C)[C@@H]([C@@H](CC(=O)N1CCC[C@H]1[C@H](OC)[C@@H](C)C(=O)N(C)CCc1ccc(N)cc1)OC)N(C)C(=O)[C@@H](NC(=O)[C@H](C(C)C)N(C)C)C(C)C [Compound 19, (S)-N-((3R,4S,5S)-1-((S)-2-((1R,2R)-3-((4-aminophenethyl)(methyl)amino)-1-methoxy-2-methyl-3-oxopropyl)pyrrolidin-1-yl)-3-methoxy-5-methyl-1-oxoheptan-4-yl)-2-((S)-2-(dimethylamino)-3-methylbutanamido)-N,3-dimethylbutanamide]
- IC50 [1]: < 5 nM
- IC50 (fold difference) HCC1954 [1, 3]: 2.1 fold difference
- IC50 (fold difference) HCC1954 [1, 4]: 2.3 fold difference
- IC50 (fold difference) T47D [2, 3]: 3.8 fold difference
- IC50 (fold difference) T47D [2, 4]: 6.9 fold difference

Structure (SMILES): CC[C@H](C)[C@@H]([C@@H](CC(=O)N1CCC[C@H]1[C@H](OC)[C@@H](C)C(=O)NCCc1cccc(N)c1)OC)N(C)C(=O)[C@@H](NC(=O)[C@H](C(C)C)N(C)C)C(C)C [Compound 20, (S)-N-((3R,4S,5S)-1-((S)-2-((1R,2R)-3-((3-aminophenethyl)amino)-1-methoxy-2-methyl-3-oxopropyl)pyrrolidin-1-yl)-3-methoxy-5-methyl-1-oxoheptan-4-yl)-2-((S)-2-(dimethylamino)-3-methylbutanamido)-N,3-dimethylbutanamide]
- IC50 (fold difference) HCC1954 [1, 4]: 1 fold difference
- IC50 (fold difference) T47D [2, 4]: 1 fold difference

Structure (SMILES): CC[C@H](C)[C@@H]([C@@H](CC(=O)N1CCC[C@H]1[C@H](OC)[C@@H](C)C(=O)NCCc1ccccc1N)OC)N(C)C(=O)[C@@H](NC(=O)[C@H](C(C)C)N(C)C)C(C)C [Compound 21, (S)-N-((3R,4S,5S)-1-((S)-2-((1R,2R)-3-((2-aminophenethyl)amino)-1-methoxy-2-methyl-3-oxopropyl)pyrrolidin-1-yl)-3-methoxy-5-methyl-1-oxoheptan-4-yl)-2-((S)-2-(dimethylamino)-3-methylbutanamido)-N,3-dimethylbutanamide]
- IC50 (fold difference) HCC1954 [1, 4]: 1 fold difference
- IC50 (fold difference) T47D [2, 4]: 1 fold difference

Structure (SMILES): CC[C@H](C)[C@@H]([C@@H](CC(=O)N1CCC[C@H]1[C@H](OC)[C@@H](C)C(=O)NCCc1ccc(N)cc1)OC)N(C)C(=O)[C@@H](NC(=O)[C@H](C(C)C)N(C)C)C(C)C [Compound 22, (S)-N-((3R,4S,5S)-1-((S)-2-((1R,2R)-3-((4-aminophenethyl)amino)-1-methoxy-2-methyl-3-oxopropyl)pyrrolidin-1-yl)-3-methoxy-5-methyl-1-oxoheptan-4-yl)-2-((S)-2-(dimethylamino)-3-methylbutanamido)-N,3-dimethylbutanamide]
- IC50 (fold difference) HCC1954 [1, 4]: 1 fold difference
- IC50 (fold difference) T47D [2, 4]: 1 fold difference

Structure (SMILES): CC[C@H](C)[C@@H]([C@@H](CC(=O)N1CCC[C@H]1[C@H](OC)[C@@H](C)C(=O)N(C)CCc1ccc(N)cc1)OC)N(C)C(=O)[C@@H](NC(=O)[C@H](C)N(C)C)C(C)C [Compound 26, (S)-N-((3R,4S,5S)-1-((S)-2-((1R,2R)-3-((4-aminophenethyl)(methyl)amino)-1-methoxy-2-methyl-3-oxopropyl)pyrrolidin-1-yl)-3-methoxy-5-methyl-1-oxoheptan-4-yl)-2-((S)-2-(dimethylamino)propanamido)-N,3-dimethylbutanamide]
- IC50 [1]: 5 to 10 nM
- IC50 (fold difference) HCC1954 [1, 3]: 4.2 fold difference
- IC50 (fold difference) T47D [2, 3]: 12.7 fold difference
